Reference: patent publication US8569467B2, “C-glycoside compounds, and method for preparing C-glycoside compounds” (Ecole Nationale Supérieure de Chimie de Rennes, priority 2008, dated 2013)
Several values for one entry are separate records, joined by “and”; a condition that tells them apart may be missing. Identical values can stand only once.

Columns and labels:
[1] = Effect on the cloud temperature of the reference surfactant C6E2; assay type: physicochemical
Protocol: Finally, the effects of various C-glycoside compounds obtained according to the invention on the cloud temperature of a surfactant were tested in order to evaluate the advantage thereof for the stabilisation of the formulations.
The surfactant taken as a reference is C6E2, diethylene glycol monohexylether.

[2] = Tensiometric measurements of CMC/MAC and interface tension; assay type: physicochemical; settings: tensiometric measurement
Excerpt: Tensiometric measurements, namely the measurement of the CMC (Critical Micelle Concentration) and the MAC (Minimal Aggregation Concentration) were made on various compounds obtained according to the invention.

[3] = C6E2 (1% weight) + product (10% weight)
[4] = C6E2 (1% weight) + product (1% weight)

A Cloud temp ([1]; C6E2 (1% weight) alone, reference surfactant) of 34 °C was found for `CCCCCCOCCOCCO` [Example C6E2, diethylene glycol monohexylether, reference compound] in this work.
In the case of `CCCCCC(=O)CC1O[C@H](CO)[C@H](O)[C@H](O)[C@H]1O` (stereo partly shown) [1-C-(Galactosyl)-heptan-2-one], the “CMC*/MAC** (Critical Micelle Concentration / Minimum Aggregation Concentration)” value [2] is reported as 17.5 mM and the “γCMC/MAC*** (interface tension at the CMC/MAC)” value (shortened to “γCMC/MAC***”) [2] is reported as 30 Mn · m^−1.
In the case of `C=CCC(C)(O)C[C@@H]1OC(CO)[C@@H](O)C(O)C1O` (single isomer, unassigned) [5-C(Glucosyl)-4-methylpent-1-ene-4-ol, 5-(C-Glucosyl)-4-methylpent-1-ene-4-ol], the Cloud temp [1, 3] is reported as 44 °C, the “CMC*/MAC** (Critical Micelle Concentration / Minimum Aggregation Concentration)” value [2] is reported as 350 mM and the “γCMC/MAC***” value [2] is reported as 34 Mn · m^−1.
A Cloud temp [1, 3] of 39 °C was found for `C=CCC(C)(O)C[C@@H]1OC(CO)[C@@H](O[C@@H]2OC(CO)[C@H](O)C(O)C2O)C(O)C1O` (single isomer, unassigned) [5-C-(Lactosyl)-4-methylpent-1-ene-4-ol, 5-(C-Lactosyl)-4-methylpent-1-en-4-ol] in this work.
In the case of `CCCCCC(=O)CC1O[C@H](CO)[C@@H](O[C@@H]2O[C@H](CO)[C@H](O)[C@H](O)[C@H]2O)[C@H](O)[C@H]1O` (stereo partly shown) [1-C-(Lactosyl)-heptan-2-one], the Cloud temp [1, 4] is reported as 58 °C, the “CMC*/MAC** (Critical Micelle Concentration / Minimum Aggregation Concentration)” value [2] is reported as 17 mM and the “γCMC/MAC***” value [2] is reported as 30 Mn · m^−1.
A Cloud temp [1, 3] of 42 °C was found for `C=CCC(C)(O)CC1O[C@H](CO)[C@H](O)[C@H](O)[C@H]1O` (stereo partly shown) [5-C-(Galactosyl)-4-methylpent-1-ene-4-ol] in this work.
With `CCCCCC(=O)C[C@@H]1OC(CO)[C@@H](O)C(O)C1O` (stereo partly shown) [1-C-(Glucosyl)-heptan-2-one, 1-(C-Glucosyl)-heptan-2-one] the Cloud temp [1, 4] was 62 °C and the “γCMC/MAC***” value [2] was 30 Mn · m^−1 and 28 Mn · m^−1.
